# System: primary mouse hepatocytes
# Test: Gene expression (Affymetrix Mouse Genome 430 2.0) in primary mouse hepatocytes, true vs false GTX, 24 h and 48 h
# Details: log2, corrected for vehicle control
smiles,measurement,setting,value
"CC(=O)Nc1ccc2c(c1)Cc1ccccc1-2 [2-AAF, 2-Acetylaminofluorene]",Gene expression data AF000969 (Cadps2),24 h average,−0.5371
same,Gene expression data AF022072 (Grb10),24 h average,0.5527
same,Gene expression data AF065917 (Lif),24 h average,−0.1242
same,Gene expression data AF204959 (Cyp3a25 /// LOC622249),24 h average,0.2152
same,Gene expression data AF297615 (Ggta1),24 h average,0.03187
same,Gene expression data AI594683 (Dmn),24 h average,−0.2452
same,Gene expression data AI596632 (Ptprg /// LOC632664),24 h average,−0.0981
same,Gene expression data AI987929 (Ndrg1),24 h average,0.8432
same,Gene expression data AK004419 (Fbxl17),24 h average,−0.168
same,Gene expression data AK005731 (1700007K13Rik),24 h average,0.08277
same,Gene expression data AK007766 (1810044A24Rik),24 h average,0.01003
same,Gene expression data AK007854 (1810053B23Rik),24 h average,−0.9008
same,Gene expression data AK009736 (Gpr137b /// LOC664862 /// LOC673335),24 h average,−0.00723
same,Gene expression data AK010447 (Smyd3),24 h average,−0.1751
same,Gene expression data AK014608 (4632434l11Rik),24 h average,−0.09823
same,Gene expression data AK019979 (2610528E23Rik),24 h average,0.3248
same,Gene expression data AV095209 (Mthfd1l),24 h average,0.4403
same,Gene expression data AV141095 (1110033M05Rik),24 h average,−0.2881
same,Gene expression data AV173571 (1700106N22Rik),24 h average,−0.04133
same,Gene expression data AV219418 (Ldhb),24 h average,−0.3695
same,Gene expression data AV223474 (Zdhhc14),24 h average,−0.4459
same,Gene expression data AV298304 (Homez),24 h average,−0.1831
same,Gene expression data AV327248 (Zfp365 /// LOC674611),24 h average,0.0668
same,Gene expression data AV377066 (9130221J18Rik),24 h average,−0.6586
same,Gene expression data AW240761 (Tbc1d5),24 h average,−0.0924
same,Gene expression data AW543460 (Pard3),24 h average,−0.3156
same,Gene expression data AW543723,24 h average,0.1065
same,Gene expression data AW986246 (Maoa),24 h average,0.01853
same,Gene expression data BB027848 (4732466D17Rik),24 h average,−0.252
same,Gene expression data BB043558 (9230114K14Rik),24 h average,−0.1205
same,Gene expression data BB275142 (AW456874),24 h average,−0.02303
same,Gene expression data BB308836 (Ppm1l),24 h average,−0.1499
same,Gene expression data BB318221 (Zdhhc14),24 h average,−0.411
same,Gene expression data BB463610 (4632434l11Rik),24 h average,−0.3778
same,Gene expression data BB526605 (Mipol1),24 h average,0.3466
same,Gene expression data BB770528 (Rai2),24 h average,−0.5052
same,Gene expression data BB821363 (Scfd2),24 h average,−0.1216
same,Gene expression data BC004827 (Psat1),24 h average,0.2797
same,Gene expression data BC008626 (Icam1),24 h average,−0.6353
same,Gene expression data BC010462 (BC010462),24 h average,−0.1475
same,Gene expression data BC012247 (Dcxr),24 h average,−0.08253
same,Gene expression data BC012260 (Psmf1),24 h average,−0.646
same,Gene expression data BC015270 (Hist2h3c2),24 h average,−0.1327
same,Gene expression data BC016073 (Cdkal1),24 h average,−0.1464
same,Gene expression data BC016265 (Ube2e2),24 h average,−0.3984
same,Gene expression data BC019882 (Acaa1b),24 h average,1.3218
same,Gene expression data BC025501 (Aaas),24 h average,−0.1475
same,Gene expression data BC025837 (Sbk1),24 h average,−0.2976
same,Gene expression data BC025915 (Cova1),24 h average,−0.1568
same,Gene expression data BC026422 (Tgm1),24 h average,−0.1664
same,Gene expression data BF719766 (Thyn1),24 h average,−0.0442
same,Gene expression data BG065754 (Ccng1),24 h average,0.0569
same,Gene expression data BG066903 (Kif16b),24 h average,−0.2125
same,Gene expression data BG069873 (Gnb1l),24 h average,−0.2747
same,Gene expression data BG070887 (Gtdc1),24 h average,−0.01607
same,Gene expression data BG076151 (Ppm1d),24 h average,−0.1219
same,Gene expression data BG261907 (Large),24 h average,−0.2502
same,Gene expression data BI651416 (Cdc42bpg),24 h average,0.1552
same,Gene expression data BI660702 (Ell3),24 h average,0.1219
same,Gene expression data BM198879 (Ercc5),24 h average,−0.2382
same,Gene expression data BM230508 (A030007D23Rik),24 h average,0.282
same,Gene expression data NM_007987 (Fas),24 h average,0.06923
same,Gene expression data NM_008522 (Ltf),24 h average,0.1277
same,Gene expression data NM_008576 (Abcc1),24 h average,0.3321
same,Gene expression data NM_011176 (St14),24 h average,−0.03387
same,Gene expression data NM_011316 (Saa4),24 h average,−0.3157
same,Gene expression data NM_012006 (Acot1),24 h average,1.9403
same,Gene expression data NM_013866 (Zfp385),24 h average,−0.136
same,Gene expression data NM_018770 (Igsf4a),24 h average,−0.2065
same,Gene expression data NM_021451 (Pmaip1),24 h average,−0.7054
same,Gene expression data NM_025770 (Atg10),24 h average,0.01663
same,Gene expression data NM_028803 (Gbe1),24 h average,−0.2716
same,Gene expression data NM_030697 (Ankrd47),24 h average,−0.252
same,Gene expression data NM_053168 (Trim11),24 h average,−0.2676
same,Gene expression data NM_134188 (Acot2),24 h average,0.597
same,Gene expression data Y15910 (Diap2),24 h average,−0.366
same,Gene expression AA561726 average,48 h,−0.7419
same,Gene expression AF000969 average,48 h,−0.8319
same,Gene expression AF022072 average,48 h,0.0482
same,Gene expression AF033112 average,48 h,−0.03947
same,Gene expression AF055573 average,48 h,−0.2895
same,Gene expression AF069954 average,48 h,0.3518
same,Gene expression AF297615 average,48 h,−0.6791
same,Gene expression AF335325 average,48 h,−0.3088
same,Gene expression AI594683 average,48 h,−0.05213
same,Gene expression AI747296 average,48 h,−0.5003
same,Gene expression AK005731 average,48 h,0.01113
same,Gene expression AK007854 average,48 h,1.4303
same,Gene expression AK010447 average,48 h,−0.3256
same,Gene expression AK010738 average,48 h,0.1851
same,Gene expression AK014608 average,48 h,−0.01987
same,Gene expression AK017734 average,48 h,0.0451
same,Gene expression AK018383 average,48 h,0.2303
same,Gene expression AK019979 average,48 h,−0.5099
same,Gene expression AV095209 average,48 h,−0.3718
same,Gene expression AV141095 average,48 h,−0.5829
same,Gene expression AV173869 average,48 h,−0.3782
same,Gene expression AV216768 average,48 h,−0.6814
same,Gene expression AV219418 average,48 h,0.7839
same,Gene expression AV221299 average,48 h,0.6759
same,Gene expression AV246296 average,48 h,−0.54
same,Gene expression AV251625 average,48 h,0.07103
same,Gene expression AV254764 average,48 h,−0.006467
same,Gene expression AV327248 average,48 h,−0.09177
same,Gene expression BB009155 average,48 h,−0.5851
same,Gene expression BB027848 average,48 h,0.5378
same,Gene expression BB043558 average,48 h,0.196
same,Gene expression BB046347 average,48 h,0.2178
same,Gene expression BB140436 average,48 h,0.4693
same,Gene expression BB204486 average,48 h,−0.6445
same,Gene expression BB223872 average,48 h,0.3216
same,Gene expression BB246912 average,48 h,−0.2264
same,Gene expression BB275142 average,48 h,0.1102
same,Gene expression BB458460 average,48 h,−0.3368
same,Gene expression BB463610 average,48 h,0.0872
same,Gene expression BB730977 average,48 h,−0.9937
same,Gene expression BB743970 average,48 h,0.7664
same,Gene expression BB770528 average,48 h,−0.5594
same,Gene expression BB781615 average,48 h,−0.1164
same,Gene expression BC003284 average,48 h,0.02563
same,Gene expression BC004827 average,48 h,−0.2015
same,Gene expression BC005552 average,48 h,−0.126
same,Gene expression BC006713 average,48 h,0.4411
same,Gene expression BC010318 average,48 h,−0.02213
same,Gene expression BC012247 average,48 h,0.6286
same,Gene expression BC012955 average,48 h,0.05073
same,Gene expression BC013893 average,48 h,0.4936
same,Gene expression BC017615 average,48 h,−0.5229
same,Gene expression BC019379 average,48 h,−1.215
same,Gene expression BC019882 average,48 h,1.577
same,Gene expression BC021352 average,48 h,−1.127
same,Gene expression BC022148 average,48 h,0.456
same,Gene expression BC025169 average,48 h,−0.2222
same,Gene expression BC026131 average,48 h,−0.3489
same,Gene expression BC027026 average,48 h,0.8063
same,Gene expression BC027121 average,48 h,−0.1341
same,Gene expression BC027185 average,48 h,0.4588
same,Gene expression BE956581 average,48 h,0.1808
same,Gene expression BF719766 average,48 h,0.2652
same,Gene expression BG065754 average,48 h,0.3738
same,Gene expression BG066491 average,48 h,−1.541
same,Gene expression BG076151 average,48 h,−0.3358
same,Gene expression BG076333 average,48 h,−0.1306
same,Gene expression BG797099 average,48 h,−0.06173
same,Gene expression BG967046 average,48 h,0.0391
same,Gene expression BI651416 average,48 h,0.3502
same,Gene expression BI966443 average,48 h,0.1201
same,Gene expression BM198879 average,48 h,−0.2887
same,Gene expression BM200015 average,48 h,0.5127
same,Gene expression BM230508 average,48 h,0.0745
same,Gene expression BM936480 average,48 h,0.9169
same,Gene expression BQ174991 average,48 h,−0.3426
same,Gene expression L21027 average,48 h,−0.729
same,Gene expression NM_007556 average,48 h,0.02703
same,Gene expression NM_007980 average,48 h,1.503
same,Gene expression NM_007987 average,48 h,0.516
same,Gene expression NM_008522 average,48 h,0.1967
same,Gene expression NM_008935 average,48 h,0.02783
same,Gene expression NM_009897 average,48 h,−0.003733
same,Gene expression NM_011075 average,48 h,−0.5522
same,Gene expression NM_011176 average,48 h,−0.2632
same,Gene expression NM_011316 average,48 h,0.4369
same,Gene expression NM_012006 average,48 h,2.771
same,Gene expression NM_013642 average,48 h,−0.6535
same,Gene expression NM_013738 average,48 h,−0.2396
same,Gene expression NM_013929 average,48 h,−0.04163
same,Gene expression NM_018881 average,48 h,0.9061
same,Gene expression NM_019738 average,48 h,−0.193
same,Gene expression NM_030697 average,48 h,−0.4783
same,Gene expression NM_053122 average,48 h,−0.106
same,Gene expression NM_134147 average,48 h,0.04213
same,Gene expression NM_134188 average,48 h,0.9088
same,Gene expression X62701 average,48 h,−0.356
